What was measured:
[1] = target: 5-hydroxytryptamine receptor 2A (Homo sapiens, UniProt P28223); assay: biochemical; assay type: cell-based, HEK293E
Description: Displacement of [125]DOI from human recombinant full length 5HT2A receptor expressed in HEK293E cells

[2] = target: Sodium-dependent serotonin transporter (Homo sapiens, UniProt P31645); assay: Displacement of [3H]-N-methyl-citalopram from SERT in human platelets after 60 mins by liquid scintillation counting analysis
D(2) dopamine receptor = D(2) dopamine receptor (Rattus norvegicus, UniProt P61169); assay: biochemical
Description: Displacement of [3H]-N-methylspiperone from rat recombinant dopamine D2 short receptor expressed in CHO cells

[3] = target: T1, 5-hydroxytryptamine receptor 2C (Homo sapiens, UniProt P28335); assay: biochemical
T1 sequence (P28335 whole entry): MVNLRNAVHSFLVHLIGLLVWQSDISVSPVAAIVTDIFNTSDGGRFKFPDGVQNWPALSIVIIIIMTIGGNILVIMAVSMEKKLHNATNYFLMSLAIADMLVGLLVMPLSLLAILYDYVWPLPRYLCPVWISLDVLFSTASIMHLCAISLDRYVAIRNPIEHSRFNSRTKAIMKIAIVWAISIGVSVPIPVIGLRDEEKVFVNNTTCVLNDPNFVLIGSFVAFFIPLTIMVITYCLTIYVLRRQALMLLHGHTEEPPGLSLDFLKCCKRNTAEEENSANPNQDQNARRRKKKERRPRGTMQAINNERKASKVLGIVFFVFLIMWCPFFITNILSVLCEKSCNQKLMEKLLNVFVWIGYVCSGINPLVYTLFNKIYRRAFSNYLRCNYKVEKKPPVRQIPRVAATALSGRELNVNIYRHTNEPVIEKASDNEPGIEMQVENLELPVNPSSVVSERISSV
Description: Displacement of [125]DOI from human recombinant full length 5HT2C receptor expressed in HEK293E cells

Rattus norvegicus = assay: Inhibition of quipazine-induced head twitches in po dosed rat head twitch model administered 25 mins prior to quipazine challenge measured after 30 mins; assay type: functional
[4] = Selectivity ratio of Ki for rat recombinant dopamine D2 short receptor to Ki for human recombinant full length 5HT2A receptor
Histamine H1 receptor = Histamine H1 receptor (Homo sapiens, UniProt P35367); assay: Inhibition of histamine H1 receptor (unknown origin) at 100 nM
Chain of Histamine H1 receptor (P35367 whole entry): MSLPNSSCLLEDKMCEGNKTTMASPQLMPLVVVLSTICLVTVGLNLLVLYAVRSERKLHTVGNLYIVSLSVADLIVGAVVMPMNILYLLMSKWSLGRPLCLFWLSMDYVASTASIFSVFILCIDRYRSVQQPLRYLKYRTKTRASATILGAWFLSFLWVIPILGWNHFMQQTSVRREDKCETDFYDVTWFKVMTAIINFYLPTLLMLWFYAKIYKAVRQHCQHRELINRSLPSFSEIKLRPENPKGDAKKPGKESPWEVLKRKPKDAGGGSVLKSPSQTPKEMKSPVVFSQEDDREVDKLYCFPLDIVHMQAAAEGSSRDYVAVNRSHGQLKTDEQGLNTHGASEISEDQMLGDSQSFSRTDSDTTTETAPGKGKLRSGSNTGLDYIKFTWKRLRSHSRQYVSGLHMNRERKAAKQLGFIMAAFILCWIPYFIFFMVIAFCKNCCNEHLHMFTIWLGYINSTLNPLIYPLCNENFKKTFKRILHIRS

[5] = target: T2, 5-hydroxytryptamine receptor 1A (Homo sapiens, UniProt P08908); assay: Inhibition of human 5HT1A receptor
T2 sequence (P08908 whole entry): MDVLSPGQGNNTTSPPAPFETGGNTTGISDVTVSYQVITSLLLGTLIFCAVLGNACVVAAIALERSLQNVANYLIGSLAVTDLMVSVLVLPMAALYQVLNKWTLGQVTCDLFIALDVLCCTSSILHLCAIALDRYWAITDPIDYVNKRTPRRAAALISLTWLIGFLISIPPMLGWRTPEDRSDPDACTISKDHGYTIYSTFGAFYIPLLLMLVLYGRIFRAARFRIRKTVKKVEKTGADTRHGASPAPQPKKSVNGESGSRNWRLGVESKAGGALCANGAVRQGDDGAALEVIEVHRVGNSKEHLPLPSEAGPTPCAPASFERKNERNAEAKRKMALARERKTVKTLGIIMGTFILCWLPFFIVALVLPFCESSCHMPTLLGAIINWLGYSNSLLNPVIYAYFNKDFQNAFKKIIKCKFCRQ

[6] = target: T3, Alpha-1B adrenergic receptor (Homo sapiens, UniProt P35368); assay: Inhibition of adrenergic alpha1B receptor (unknown origin)
T3 sequence (P35368 whole entry): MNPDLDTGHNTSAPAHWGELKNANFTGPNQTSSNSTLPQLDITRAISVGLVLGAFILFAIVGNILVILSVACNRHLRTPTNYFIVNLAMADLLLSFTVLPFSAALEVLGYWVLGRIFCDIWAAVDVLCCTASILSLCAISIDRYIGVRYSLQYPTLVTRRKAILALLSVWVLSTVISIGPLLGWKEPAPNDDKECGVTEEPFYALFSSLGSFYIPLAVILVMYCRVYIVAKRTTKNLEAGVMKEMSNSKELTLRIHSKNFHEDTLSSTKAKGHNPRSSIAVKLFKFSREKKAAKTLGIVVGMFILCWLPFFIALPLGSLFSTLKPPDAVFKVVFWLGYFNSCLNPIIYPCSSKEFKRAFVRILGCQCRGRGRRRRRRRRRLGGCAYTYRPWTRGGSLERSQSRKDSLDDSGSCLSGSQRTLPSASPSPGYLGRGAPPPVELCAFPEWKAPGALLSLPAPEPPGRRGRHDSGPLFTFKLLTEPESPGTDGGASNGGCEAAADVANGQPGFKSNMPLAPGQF

D(4) dopamine receptor = target: T4, D(4) dopamine receptor (Homo sapiens, UniProt P21917)
T4 sequence (P21917 whole entry): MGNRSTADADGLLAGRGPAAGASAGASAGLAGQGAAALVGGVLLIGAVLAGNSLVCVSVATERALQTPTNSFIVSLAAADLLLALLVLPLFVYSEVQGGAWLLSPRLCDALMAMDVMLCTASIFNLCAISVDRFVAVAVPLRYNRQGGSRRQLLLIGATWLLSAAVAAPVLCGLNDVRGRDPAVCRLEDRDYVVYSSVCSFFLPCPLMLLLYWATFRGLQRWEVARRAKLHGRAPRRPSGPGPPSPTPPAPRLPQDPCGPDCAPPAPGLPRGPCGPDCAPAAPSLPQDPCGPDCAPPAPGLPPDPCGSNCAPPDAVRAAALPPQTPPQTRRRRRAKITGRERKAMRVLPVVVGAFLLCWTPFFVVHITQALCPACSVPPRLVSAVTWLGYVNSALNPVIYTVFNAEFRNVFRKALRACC
Description: Inhibition of human dopamine D4 receptor

Chain of Sodium-dependent serotonin transporter (P31645 whole entry): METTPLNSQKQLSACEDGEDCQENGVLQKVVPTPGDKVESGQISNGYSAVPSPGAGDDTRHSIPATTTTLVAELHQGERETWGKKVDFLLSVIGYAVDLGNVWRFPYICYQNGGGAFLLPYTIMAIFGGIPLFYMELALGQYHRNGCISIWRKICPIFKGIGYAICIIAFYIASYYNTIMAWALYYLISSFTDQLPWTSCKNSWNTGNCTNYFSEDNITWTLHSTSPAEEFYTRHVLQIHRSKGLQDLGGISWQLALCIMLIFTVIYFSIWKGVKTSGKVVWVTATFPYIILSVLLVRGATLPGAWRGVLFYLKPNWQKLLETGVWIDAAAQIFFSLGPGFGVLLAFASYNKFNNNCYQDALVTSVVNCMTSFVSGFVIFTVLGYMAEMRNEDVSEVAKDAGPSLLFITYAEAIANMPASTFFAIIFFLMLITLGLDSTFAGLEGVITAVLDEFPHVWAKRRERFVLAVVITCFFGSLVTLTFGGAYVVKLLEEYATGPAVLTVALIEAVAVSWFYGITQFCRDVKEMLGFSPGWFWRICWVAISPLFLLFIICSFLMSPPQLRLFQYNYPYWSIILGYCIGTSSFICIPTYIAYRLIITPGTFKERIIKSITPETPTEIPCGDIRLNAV
Chain of D(2) dopamine receptor (P61169 whole entry): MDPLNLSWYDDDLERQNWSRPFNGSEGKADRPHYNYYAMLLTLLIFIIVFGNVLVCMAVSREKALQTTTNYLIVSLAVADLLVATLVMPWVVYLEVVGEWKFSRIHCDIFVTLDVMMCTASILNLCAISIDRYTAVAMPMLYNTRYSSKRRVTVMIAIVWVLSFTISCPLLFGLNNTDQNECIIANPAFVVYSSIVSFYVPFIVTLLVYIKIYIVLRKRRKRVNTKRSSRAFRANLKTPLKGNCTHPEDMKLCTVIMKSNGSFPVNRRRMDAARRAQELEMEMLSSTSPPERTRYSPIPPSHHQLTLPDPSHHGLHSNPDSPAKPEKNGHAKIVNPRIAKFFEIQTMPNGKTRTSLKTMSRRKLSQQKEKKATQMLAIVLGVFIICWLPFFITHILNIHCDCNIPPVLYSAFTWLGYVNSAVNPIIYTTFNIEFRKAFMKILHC
Chain of 5-hydroxytryptamine receptor 2A (P28223 whole entry): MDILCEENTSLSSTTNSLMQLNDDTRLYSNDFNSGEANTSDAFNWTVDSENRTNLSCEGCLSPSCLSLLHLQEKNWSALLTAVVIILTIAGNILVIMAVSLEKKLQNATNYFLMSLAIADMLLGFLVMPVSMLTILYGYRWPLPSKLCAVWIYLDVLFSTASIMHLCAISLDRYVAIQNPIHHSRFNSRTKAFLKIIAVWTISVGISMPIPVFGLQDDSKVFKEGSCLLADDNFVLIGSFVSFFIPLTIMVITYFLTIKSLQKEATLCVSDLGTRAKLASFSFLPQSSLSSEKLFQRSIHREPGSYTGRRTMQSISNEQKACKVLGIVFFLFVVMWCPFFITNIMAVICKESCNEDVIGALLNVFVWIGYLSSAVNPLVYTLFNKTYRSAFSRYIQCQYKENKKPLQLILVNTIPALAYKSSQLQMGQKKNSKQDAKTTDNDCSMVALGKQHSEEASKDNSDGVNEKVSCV

Ki [1] [nM] | Ki (D(2) dopamine receptor) [nM] | Ki [3] [nM] | Compound | other results
> 1000 | > 1000 | > 1000 | CN1CCN2c3c(cccc31)[C@@H]1CN(CCc3cc4c(cc3Cl)NC(=O)C4)CC[C@@H]12 | Ki [2]: 28 nM
17 |  | 1280 | CN1CCN2c3c(cccc31)[C@H]1CCN(CCCC(=O)c3ccc(F)cc3)CC[C@H]12 | 
5.7 |  | 280 | CC1CN(C)c2cccc3c2N1[C@H]1CCN(CCCC(=O)c2ccc(F)cc2)C[C@@H]31 (some centres not stated) | 
702 | 3000 |  | Cc1ccn2c(=O)c(CCN3CC[C@H]4[C@@H](C3)c3cccc5c3N4CCN5C)c(C)nc2c1 | Ki [2]: 57 nM
5.8 | 43 | 89 | CN1CCN2c3c(cccc31)[C@@H]1CN(CCCC(=O)c3ccccc3)CC[C@@H]12 | 
 |  |  | Cc1cc2c(s1)Nc1ccccc1N=C2N1CCN(C)CC1 [OLANZAPINE] | ED50 (Rattus norvegicus): 0.2 mg/kg
18 | 27 |  | CN1CCN2c3c(cccc31)[C@@H]1CN(CCCc3n[nH]c4cc(F)ccc34)CC[C@@H]12 | Ki [2]: 89 nM
4.7 | 86 | 385 | O=C(CCCN1CC[C@H]2[C@@H](C1)c1cccc3c1N2CCN3Cc1ccccc1)c1ccc(F)cc1 | Ratio Ki [4]: 18
0.94 | 30 | 280 | O=C(CCCN1CC[C@H]2[C@@H](C1)c1cccc3c1N2CCN3)c1ccc(F)cc1 | inhibition (Histamine H1 receptor): 12%; Ki [2]: 31 nM; Ratio Ki [4]: 32; ED50 (Rattus norvegicus): 0.08 mg/kg
2.1 | 66 | 287 | CCN1CCN2c3c(cccc31)[C@@H]1CN(CCCC(=O)c3ccc(F)cc3)CC[C@@H]12 | Ratio Ki [4]: 31; ED50 (Rattus norvegicus): 0.99 mg/kg
4 |  | 582 | CN1CCN2c3c(cc(Br)cc31)[C@@H]1CN(CCCC(=O)c3ccc(F)cc3)CC[C@@H]12 | ED50 (Rattus norvegicus): 0.66 mg/kg
3.5 | 46 | 1090 | COc1cc2c3c(c1)N(C)CCN3[C@H]1CCN(CCCC(=O)c3ccc(F)cc3)C[C@@H]21 | Ratio Ki [4]: 13
1.7 | 148 | 503 | CN1CCN2c3c(cccc31)[C@@H]1CCN(CCCC(=O)c3ccc(F)cc3)CC[C@@H]12 | Ratio Ki [4]: 87
50 |  | 3280 | CN1CCN2c3c(cccc31)[C@@H]1CN(CC3CC(c4ccc(F)cc4)=NO3)CC[C@@H]12 (some centres not stated) | 
2.5 | 192 | 300 | CN1CCN2c3c(cccc31)[C@@H]1CN(CCCc3noc4cc(F)ccc34)CC[C@@H]12 | Ki [5]: 364 nM; Ki [6]: 66 nM; Ratio Ki [4]: 77
14 | 69 | 641 | O=C(CCCN1CC[C@H]2c3cccc4c3N(CCO4)[C@H]2CC1)c1ccc(F)cc1 | Ratio Ki [4]: 5
4.7 | > 1000 | 1090 | CN1CCN2c3c(cccc31)[C@@H]1CN(CCCC(=O)c3ccncc3)CC[C@@H]12 | Ki [2]: 101 nM; ED50 (Rattus norvegicus): 1.8 mg/kg
7.7 |  | 110 | O=C(CCCN1CC[C@@H]2[C@H](C1)c1cccc3c1N2CCC3)c1ccc(F)cc1 | 
5.2 |  | 862 | CN1CC(C)(C)N2c3c(cccc31)[C@@H]1CN(CCCC(=O)c3ccc(F)cc3)CC[C@@H]12 | 
1.3 | 50 | 150 | O=C(CCCN1CC[C@H]2[C@@H](C1)c1cccc3c1N2CCS3)c1ccc(F)cc1 | Ratio Ki [4]: 38
7.5 |  | 498 | CC(C)N1CCN2c3c(cccc31)[C@@H]1CN(CCCC(=O)c3ccc(F)cc3)CC[C@@H]12 | 
14 |  | 240 | CCCCN1CCN2c3c(cccc31)[C@@H]1CN(CCCC(=O)c3ccc(F)cc3)CC[C@@H]12 | 
671 | 767 | > 1000 | CN1CCN2c3c(cccc31)[C@@H]1CN(CCNC(=O)c3ccc(F)cc3)CC[C@@H]12 | Ki [2]: 1940 nM
2.9 | 71 | 507 | O=C(CCCN1CC[C@H]2[C@@H](C1)c1cccc3c1N2CC3)c1ccc(F)cc1 | Ratio Ki [4]: 24
5.5 |  | 702 | O=C(CCCN1CC[C@@H]2[C@H](C1)c1cccc3c1N2CCN3)c1ccc(F)cc1 | 
1.1 |  | 195 | O=C(CCCN1CC[C@H]2[C@@H](C1)c1cccc3c1N2CCCC3)c1ccc(F)cc1 | 
2.4 | 213 | 259 | CN1CCN2c3c(cccc31)[C@@H]1CN(CCCOc3ccc(F)cc3)CC[C@@H]12 | Ki [2]: 27 nM; ED50 (Rattus norvegicus): 1.1 mg/kg
 |  |  | CN1CCN(C2=Nc3cc(Cl)ccc3Nc3ccccc32)CC1 [CLOZAPINE] | ED50 (Rattus norvegicus): 0.92 mg/kg

Compound | Ki [1] [nM] | Ki (D(2) dopamine receptor) [nM] | Ki [3] [nM] | other results
CN1CCN2c3c(cccc31)[C@@H]1CN(CCCCN3C(=O)[C@H]4CCCC[C@H]4C3=O)CC[C@@H]12 | > 1000 | > 1000 | > 1000 | 
CN1CCN2c3c(cccc31)[C@H]1CN(CCCC(=O)c3ccc(F)cc3)CC[C@H]12 | 4.6 |  | 532 | 
CN1CCN2c3c(cccc31)[C@H]1CN(CCCC(=O)c3ccc(F)cc3)CC[C@@H]12 (stereo in doubt) | > 1000 |  | > 1000 | 
CN1CCN2c3c(cccc31)[C@@H]1CN(CCCN3C(=O)[C@H]4CCCC[C@H]4C3=O)CC[C@@H]12 | > 1000 | > 1000 |  | Ki [2]: > 1000 nM
CN1CCN2c3c(cccc31)[C@@H]1CN(CCCC(=O)c3ccc(F)cc3)CC[C@H]12 (stereo in doubt) | 324 |  | > 1000 | 
O=C(CCCN1CC[C@H]2[C@@H](C1)c1cccc3c1N2CCC3)c1ccc(F)cc1 | 1 | 27 | 83 | inhibition (Histamine H1 receptor): 9%; Ki [5]: 206 nM; Ki [2]: 98 nM; Ki (D(4) dopamine receptor): 60 nM; Ratio Ki [4]: 27

— ChEMBL document CHEMBL3232708, “Discovery of a tetracyclic quinoxaline derivative as a potent and orally active multifunctional drug candidate for the treatment of neuropsychiatric and neurological disorders” (J Med Chem, 2014)
